The subject of one test is MDA-MB-231 (breast). Kind of test: In vitro cytotoxic activity assay (MTT), MDA-MB-231. Format: cell-based. The conditions noted are these: Homo sapiens; MDA-MB-231 (breast) cells, exposed for 96 hours; read-out: IC50, concentration eliciting 50% inhibition of cell proliferation. How it is done: (§1) Compounds 1-16 were screened for their in vitro cytotoxic behavior using a 3-(4,5-dimethyl-thiazol-2-yl)-2,5-diphenyltetrazolium bromide (MTT) assay against selected cancer human cell lines consisting of PC3 (prostate), HCT116 (colon), A375 (melanoma), H1299 (lung), MIAPaCa-2 (pancreas), HL60 (leukemia), MCF7 (breast), MDA-MB-231 (breast) (T. Mosmann, J. Immunol. Meth., 1983, 65, 55-63). The cells were cultured at 37° C. in RMPI1640 medium supplemented with 10% fetal bovine serum, 50 IU/mL penicillin, and 50 μg/mL streptomycin in a 5% CO2 incubator. All cells were sub-cultured 3 times/week by trypsinisation. Viable cells were seeded and allowed to adhere for 12 h before a test drug was added in 96-well plates at an initial density of 1.0×10^5 cells/mL. Tumor cell lines were separately exposed to various concentrations of the tested compounds followed by incubation at a temperature of 37° C. during 96 h inside a medium of fresh RMPI 1640. Cells were subsequently incubated at 37° C. using MTT at 0.5 mg/mL during 4 hours. After removal of supernatant, formazan crystals were dissolved in isopropanol and the optical density was measured at 570 nm. CX-4945 was used as a positive control.

Another test relates to H1299 (lung). Kind of test: In vitro cytotoxic activity assay (MTT), H1299. The conditions noted are these: Homo sapiens, NCI-H1299; H1299 (lung) cells, exposed for 96 hours; read-out: IC50, concentration eliciting 50% inhibition of cell proliferation. Format: cell-based. How it is done:
as §1

A further test has as its system HCT116 (colon). As to the kind of experiment: In vitro cytotoxic activity assay (MTT), HCT116. The format is cell-based. The conditions noted are these: Homo sapiens, HCT-116; HCT116 (colon) cells, exposed for 96 hours; read-out: IC50, concentration eliciting 50% inhibition of cell proliferation. How it is done: as §1
The subject of the next test is MCF7 (breast). As to the kind of experiment: In vitro cytotoxic activity assay (MTT), MCF7. Format: cell-based. The conditions noted are these: Homo sapiens; MCF7 (breast) cells, exposed for 96 hours; read-out: IC50, concentration eliciting 50% inhibition of cell proliferation. How it is done:
as §1

The test system of another test is A375 (melanoma). Kind of test: In vitro cytotoxic activity assay (MTT), A375. Format: cell-based. The conditions noted are these: Homo sapiens, A-375; A375 (melanoma) cells, exposed for 96 hours; read-out: IC50, concentration eliciting 50% inhibition of cell proliferation. How it is done: as §1
The subject of the next test is HL60 (leukemia). As to the kind of experiment: In vitro cytotoxic activity assay (MTT), HL60. The following applies: Homo sapiens, HL-60; HL60 (leukemia) cells, exposed for 96 hours; read-out: IC50, concentration eliciting 50% inhibition of cell proliferation. The format is cell-based. How it is done:
as §1

Another test concerns PC3 (prostate). Kind of test: In vitro cytotoxic activity assay (MTT), PC3. The format is cell-based. The conditions noted are these: Homo sapiens, Prostate cell; PC3 (prostate) cells, exposed for 96 hours; read-out: IC50, concentration eliciting 50% inhibition of cell proliferation. How it is done:
as §1

In test [1] the target is T1, recombinant human CK2 (RRββ-holoenzyme) (Homo sapiens, UniProt P68400).
T1 construct: purchased Millipore
Kind of test: CK2 Kinase Assay ([γ-33P]ATP, substrate peptide RRRDDDSDDD). Format: biochemical. The conditions noted are these: final ATP concentration 15 μM, 10 minutes at 30° C.; read-out: protein kinase CK2 IC50. How it is done:
CK2 Kinase Assay was conducted using the previously described protocol (Pierre F. et al; J. Med. Chem. 2011, 54, 635-654). The tested compounds in aqueous solution were added at a volume of 10 μL to a reaction mixture comprising 10 μL of assay dilution buffer (ADB; 20 mM MOPS, pH 7.2, 25 mM β-glycerol phosphate, 5 mM EGTA, 1 mM sodium orthovanadate, and 1 mM dithiothreitol), 10 μL of substrate peptide (RRRDDDSDDD, dissolved in ADB at a concentration of 1 mM), 10 μL of recombinant human CK2 (RRββ-holoenzyme, 25 ng dissolved in ADB; Millipore). Reactions were initiated by the addition of 10 μL of ATP solution (90% 75 mMMgCl2, 75 μM ATP (final ATP concentration: 15 μM) dissolved in ADB; 10% [γ-33P] ATP (stock 1 mCi/100 μL; 3000 Ci/mmol (Perkin-Elmer) and maintained for 10 minutes at 30° C. The reactions were quenched with 100 μL of 0.75% phosphoric acid and then transferred to and filtered through a phosphor cellulose filter plate (Millipore). After washing each well five times with 0.75% phosphoric acid, the plate was dried under vacuum for 5 min and, following the addition of 15 μL of scintillation fluid to each well, the residual radioactivity was measured using a Wallac luminescence counter. The IC50 values were derived from eight concentrations of test inhibitors.

The subject of the next test is MIAPaCa-2 (pancreas). Kind of test: In vitro cytotoxic activity assay (MTT), MIAPaCa-2. Format: cell-based. The conditions noted are these: Homo sapiens, MIA PaCa-2; MIAPaCa-2 (pancreas) cells, exposed for 96 hours; read-out: IC50, concentration eliciting 50% inhibition of cell proliferation. How it is done:
as §1

T1 sequence (P68400 whole entry): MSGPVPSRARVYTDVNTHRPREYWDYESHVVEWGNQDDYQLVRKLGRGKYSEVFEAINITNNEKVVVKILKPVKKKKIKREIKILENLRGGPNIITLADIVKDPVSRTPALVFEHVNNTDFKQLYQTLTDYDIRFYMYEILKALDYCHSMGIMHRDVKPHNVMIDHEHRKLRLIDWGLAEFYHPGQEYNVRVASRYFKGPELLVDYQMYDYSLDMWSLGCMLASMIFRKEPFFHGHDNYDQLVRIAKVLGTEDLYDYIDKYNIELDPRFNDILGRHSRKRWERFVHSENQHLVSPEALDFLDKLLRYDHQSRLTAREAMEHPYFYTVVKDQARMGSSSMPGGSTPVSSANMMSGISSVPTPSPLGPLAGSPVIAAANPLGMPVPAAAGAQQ
T1 sequence (P67870 whole entry partner): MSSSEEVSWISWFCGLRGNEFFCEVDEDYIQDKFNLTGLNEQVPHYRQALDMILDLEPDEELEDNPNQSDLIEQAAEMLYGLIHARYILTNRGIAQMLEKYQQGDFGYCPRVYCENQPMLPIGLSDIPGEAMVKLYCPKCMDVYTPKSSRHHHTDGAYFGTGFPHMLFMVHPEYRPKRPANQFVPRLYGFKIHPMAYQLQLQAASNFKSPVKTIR

Consider `O=C1Nc2nc(Nc3cccc(Cl)c3)c3cc(C(=O)O)ccc3c2C1=O` [Compound 1, 5-((3-chlorophenyl)amino)-1,2-dioxo-2,3-dihydro-1H-pyrrolo[2,3-c]isoquinoline-7-carboxylic Acid], for which the IC50 stood at 4100 nM with MDA-MB-231 (breast); 1900 nM in the test on H1299 (lung); 1300 nM in the test on HCT116 (colon); 5500 nM in the test with MCF7 (breast); 2700 nM in the test with A375 (melanoma); 3400 nM with HL60 (leukemia). Also, the IC50 with PC3 (prostate) is 1200 nM; in test [1], 55 nM; in the test on MIAPaCa-2 (pancreas), 1300 nM.

Source of the values: patent US11952378B1, “Pyrrolo[2,3-c]isoquinoline-1,2-dione compounds as CK2 inhibitors” (KING FAISAL UNIVERSITY, priority 2023, dated 2024).
